Test results published in the NIST ThermoML archive (doi:10.1021/je050333h).

Assay: cn = amount concentration of the nth substance listed, in mol/dm3
Conditions: 101 kPa, Liquid; for speed of sound: Sing-around technique in a fixed-path interferometer

CCCCC(CC)COC(=O)CC(C(=O)OCC(CC)CCCC)S(=O)(=O)[O-].[Na+] (stereo not given) [sodium bis(2-ethylhexyl) sulfosuccinate] + CC(C)CC(C)(C)C
Conditions	kinematic viscosity [m2/s]	mass density [kg/m3]	speed of sound [m/s]
293.15 K, c1 = 0.0993	8.03e-07	704.23	1103.5
293.15 K, c1 = 0.2006	9.05e-07	718.92	1104
293.15 K, c1 = 0.302	1.04e-06	736.65	1105.7
293.15 K, c1 = 0.4037	1.21e-06	754.54	1107.9
293.15 K, c1 = 0.5242	1.52e-06	775.5	1111.5
293.15 K, c1 = 0.6067	1.83e-06	794.1	1115.2
293.15 K, c1 = 0.7046	2.28e-06	812.69	1120.4
293.15 K, c1 = 0.8053	2.96e-06	829.38	1126.2
293.15 K, c1 = 0.9065	4.07e-06	847.23	1133.6
293.15 K, c1 = 1.012	5.97e-06	865.07	1142.4
298.15 K, c1 = 0.0987	7.58e-07	700.09	1082.4
298.15 K, c1 = 0.1994	8.56e-07	714.76	1083.1
298.15 K, c1 = 0.3003	9.87e-07	732.48	1085.1
298.15 K, c1 = 0.4017	1.14e-06	750.77	1087.3
298.15 K, c1 = 0.5213	1.42e-06	771.2	1091.2
298.15 K, c1 = 0.6034	1.67e-06	789.8	1095
298.15 K, c1 = 0.701	2.1e-06	808.51	1100.4
298.15 K, c1 = 0.8013	2.76e-06	825.19	1106.5
298.15 K, c1 = 0.902	3.73e-06	843	1113.8
298.15 K, c1 = 1.007	5.27e-06	860.81	1123
303.15 K, c1 = 0.0981	7.23e-07	695.93	1061.6
303.15 K, c1 = 0.1983	8.13e-07	710.7	1062.4
303.15 K, c1 = 0.2986	9.27e-07	728.39	1064.5
303.15 K, c1 = 0.3988	1.07e-06	745.5	1066.9
303.15 K, c1 = 0.5185	1.32e-06	767	1071.1
303.15 K, c1 = 0.6002	1.56e-06	785.6	1075
303.15 K, c1 = 0.6974	1.93e-06	804.41	1080.5
303.15 K, c1 = 0.7972	2.53e-06	820.98	1086.5
303.15 K, c1 = 0.8975	3.43e-06	838.76	1094.1
303.15 K, c1 = 1.002	4.77e-06	856.54	1103.7
313.15 K, c1 = 0.097	6.55e-07	687.78	1020.3
313.15 K, c1 = 0.1956	7.34e-07	700.9	1021.5
313.15 K, c1 = 0.2946	8.29e-07	718.5	1024
313.15 K, c1 = 0.3949	9.53e-07	738.2	1026.6
313.15 K, c1 = 0.5111	1.17e-06	756.1	1031.3
313.15 K, c1 = 0.5932	1.35e-06	776.5	1035.6
313.15 K, c1 = 0.6899	1.67e-06	795.7	1041.3
313.15 K, c1 = 0.7889	2.12e-06	812.51	1048.1
313.15 K, c1 = 0.8884	2.79e-06	830.24	1055.8
313.15 K, c1 = 0.9921	3.89e-06	847.98	1065.5
323.15 K, c1 = 0.0959	5.95e-07	680.26	979.8
323.15 K, c1 = 0.1937	6.66e-07	694.2	981.2
323.15 K, c1 = 0.2919	7.5e-07	712	984.1
323.15 K, c1 = 0.3904	8.59e-07	729.7	987.1
323.15 K, c1 = 0.505	1.04e-06	747	992.3
323.15 K, c1 = 0.5858	1.19e-06	766.8	996.8
323.15 K, c1 = 0.6822	1.47e-06	786.9	1002.8
323.15 K, c1 = 0.7807	1.83e-06	804.04	1009.9
323.15 K, c1 = 0.8792	2.35e-06	821.7	1018
323.15 K, c1 = 0.982	3.09e-06	839.35	1028
